From patent US20070027150A1 (priority 2005, published 2007)

The compounds below were run against His-tagged N-terminal ATP binding domain (amino acid residues 9-236) of HSP90α (Homo sapiens, UniProt P07900) (assay: HSP90 inhibitor binding potency: TRF competition binding assay). Conditions: Table II; read-out: Hsp90 IC50 Range.
Procedure, shortened: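 Competition against biotinylated radicicol for binding to the His-tagged 9-236 ATP domain of HSP90α: 2 h, room temperature, HEPES/MgCl2/KCl/BSA buffer. Streptavidin capture, then europium-labeled anti-His antibody and enhancement solution; europium counts give IC50.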

`Cc1nc(N)nc2c1C(=O)CC(c1ncccc1OC1CCCC1)C2` (centres unmarked) [Compound 178, 2-amino-7-(3-cyclopentyloxy-pyridin-2-yl)-4-methyl-7,8-dihydro-6H-quinazolin-5-one] and `Cc1nc(N)nc2c1C(=O)CC(c1ccc(F)cc1OC1CCCC1)C2` (centres unmarked) [Compound 181, 2-amino-7-(2-cyclopentyloxy-4-fluoro-phenyl)-4-methyl-7,8-dihydro-6H-quinazolin-5-one] cannot be ordered by IC50: < 1000 nM for the first, < 1000 nM for the second.

`Cc1nc(N)nc2c1C(=O)CC(c1ccc(F)cc1OCC1CC1)C2` (centres unmarked) [Compound 179, 2-amino-7-(2-cyclopropylmethoxy-4-fluoro-phenyl)-4-methyl-7,8-dihydro-6H-quinazolin-5-one] and `C#CCCOc1cc(F)ccc1C1CC(=O)c2c(C)nc(N)nc2C1` (centres unmarked) [Compound 192, 2-amino-7-(2-but-3-ynyloxy-4-fluoro-phenyl)-4-methyl-7,8-dihydro-6H-quinazolin-5-one] cannot be ordered by IC50: < 1000 nM for the first, < 1000 nM for the second.

`Cc1nc(N)nc2c1C(=O)CC(c1ccccc1SC(C)(C)C)C2` (centres unmarked) [Compound 180, 2-amino-7-(2-tert-butylsulfanyl-phenyl)-4-methyl-7,8-dihydro-6H-quinazolin-5-one] and `Cc1nc(N)nc2c1C(=O)CC(c1ccccc1S(=O)(=O)C(C)(C)C)C2` (centres unmarked) [Compound 182, 2-amino-4-methyl-7-[2-(2-methyl-propane-2-sulfonyl)-phenyl]-7,8-dihydro-6H-quinazolin-5-one] cannot be ordered by IC50: < 1000 nM for the first, < 1000 nM for the second.

Compared with `CCc1cccc(-c2cc(F)ccc2C2CC(=O)c3c(C)nc(N)nc3C2)n1` (centres unmarked) [Compound 183, 2-amino-7-[2-(6-ethyl-pyridin-2-yl)-4-fluoro-phenyl]-4-methyl-7,8-dihydro-6H-quinazolin-5-one], `Cc1nc(N)nc2c1C(=O)C[C@H](c1ccc(F)cc1-c1cccc(F)n1)C2` [Compound 213, (R)-2-amino-7-[4-fluoro-2-(6-fluoro-pyridin-2-yl)-phenyl]-4-methyl-7,8-dihydro-6H-quinazolin-5-one] is higher in IC50: < 1000 nM for the first, 1000 to 10000 nM for the second. The first is the more potent here.

`Cc1nc(N)nc2c1C(=O)CC(c1ccccc1S(=O)(=O)N1CCCC1)C2` (centres unmarked) [Compound 184, 2-amino-4-methyl-7-[2-(pyrrolidine-1-sulfonyl)-phenyl]-7,8-dihydro-6H-quinazolin-5-one] and `Cc1nc(N)nc2c1C(=O)CC(c1ccccc1S(=O)(=O)N(C)C(C)C)C2` (centres unmarked) [Compound 185, 2-(2-amino-4-methyl-5-oxo-5,6,7,8-tetrahydro-quinazolin-7-yl)-N-isopropyl-N-methyl-benzenesulfonamide] fall in the same range of IC50: 1000 to 10000 nM for the first, 1000 to 10000 nM for the second.

`COc1ccc(F)c(-c2cc(F)ccc2C2CC(=O)c3c(C)nc(N)nc3C2)c1` (centres unmarked) [Compound 186, 2-amino-7-(5,2′-difluoro-5′-methoxy-biphenyl-2-yl)-4-methyl-7,8-dihydro-6H-quinazolin-5-one] and `Cc1nc(N)nc2c1C(=O)C[C@@H](c1ccc(F)cc1-c1cccc(F)n1)C2` [Compound 214, (S)-2-amino-7-[4-fluoro-2-(6-fluoro-pyridin-2-yl)-phenyl]-4-methyl-7,8-dihydro-6H-quinazolin-5-one] cannot be ordered by IC50: < 1000 nM for the first, < 1000 nM for the second.

First: Cc1nc(N)nc2c1C(=O)CC(c1cnccc1-c1cccc(Br)c1)C2 (centres unmarked) [Compound 187, 2-amino-7-[4-(3-bromo-phenyl)-pyridin-3-yl]-4-methyl-7,8-dihydro-6H-quinazolin-5-one]
Second: COc1cccc(-n2ccnc2C2CC(=O)c3c(C)nc(N)nc3C2)c1 (centres unmarked) [Compound 190, 2-amino-7-[1-(3-methoxy-phenyl)-1H-imidazol-2-yl]-4-methyl-7,8-dihydro-6H-quinazolin-5-one]
The IC50 of the first is lower: < 1000 nM for the first, 1000 to 10000 nM for the second. The first is the more potent here.

`Cc1nc(N)nc2c1C(=O)CC(c1nccn1-c1ccccc1F)C2` (centres unmarked) [Compound 188, 2-amino-7-[1-(2-fluoro-phenyl)-1H-imidazol-2-yl]-4-methyl-7,8-dihydro-6H-quinazolin-5-one] and `COc1ccccc1-n1ccnc1C1CC(=O)c2c(C)nc(N)nc2C1` (centres unmarked) [Compound 194, 2-amino-7-[1-(2-methoxy-phenyl)-1H-imidazol-2-yl]-4-methyl-7,8-dihydro-6H-quinazolin-5-one] cannot be ordered by IC50: < 1000 nM for the first, < 1000 nM for the second.

`Cc1nc(N)nc2c1C(=O)CC(c1nccn1C1CCCC1)C2` (centres unmarked) [Compound 189, 2-amino-7-(1-cyclopentyl-1H-imidazol-2-yl)-4-methyl-7,8-dihydro-6H-quinazolin-5-one] and `CCc1c[nH]nc1-n1ccnc1C1CC(=O)c2c(C)nc(N)nc2C1` (centres unmarked) [Compound 200, 2-amino-7-[1-(4-ethyl-1H-pyrazol-3-yl)-1H-imidazol-2-yl]-4-methyl-7,8-dihydro-6H-quinazolin-5-one] cannot be ordered by IC50: < 1000 nM for the first, < 1000 nM for the second.

`CCOc1cccc(-n2ccnc2C2CC(=O)c3c(C)nc(N)nc3C2)c1` (centres unmarked) [Compound 191, 2-amino-7-[1-(3-ethoxy-phenyl)-1H-imidazol-2-yl]-4-methyl-7,8-dihydro-6H-quinazolin-5-one] and `Cc1nc(N)nc2c1C(=O)CC(c1nccn1-c1cccc(OC(F)(F)F)c1)C2` (centres unmarked) [Compound 198, 2-amino-4-methyl-7-[1-(3-trifluoromethoxy-phenyl)-1H-imidazol-2-yl]-7,8-dihydro-6H-quinazolin-5-one] cannot be ordered by IC50: > 10000 nM for the first, > 10000 nM for the second.

Compared with `COc1cccc(-n2ccnc2C2CC(=O)c3c(C)nc(N)nc3C2)n1` (centres unmarked) [Compound 193, 2-amino-7-[1-(6-methoxy-pyridin-2-yl)-1H-imidazol-2-yl]-4-methyl-7,8-dihydro-6H-quinazolin-5-one], `COc1cccc(-n2ccnc2[C@H]2CC(=O)c3c(C)nc(N)nc3C2)n1` [Compound 203, (R)-2-amino-7-[1-(6-methoxy-pyridin-2-yl)-1H-imidazol-2-yl]-4-methyl-7,8-dihydro-6H-quinazolin-5-one] is higher in IC50: < 1000 nM for the first, 1000 to 10000 nM for the second. The first is the more potent here.

First: CCc1ccccc1-n1ccnc1C1CC(=O)c2c(C)nc(N)nc2C1 (centres unmarked) [Compound 195, 2-amino-7-[1-(2-ethyl-phenyl)-1H-imidazol-2-yl]-4-methyl-7,8-dihydro-6H-quinazolin-5-one]
Second: CCc1cccc(-n2ccnc2C2CC(=O)c3c(C)nc(N)nc3C2)n1 (centres unmarked) [Compound 201, 2-amino-7-[1-(6-ethyl-pyridin-2-yl)-1H-imidazol-2-yl]-4-methyl-7,8-dihydro-6H-quinazolin-5-one]
The IC50 of the first is lower: < 1000 nM for the first, 1000 to 10000 nM for the second.

`COc1ccc(F)c(-n2ccnc2C2CC(=O)c3c(C)nc(N)nc3C2)c1` (centres unmarked) [Compound 196, 2-amino-7-[1-(2-fluoro-5-methoxy-phenyl)-1H-imidazol-2-yl]-4-methyl-7,8-dihydro-6H-quinazolin-5-one] and `COc1ccc(C(F)(F)F)cc1-n1ccnc1C1CC(=O)c2c(C)nc(N)nc2C1` (centres unmarked) [Compound 199, 2-amino-7-[1-(2-methoxy-5-trifluoromethyl-phenyl)-1H-imidazol-2-yl]-4-methyl-7,8-dihydro-6H-quinazolin-5-one] fall in the same range of IC50: 1000 to 10000 nM for the first, 1000 to 10000 nM for the second.

`C#Cc1cccc(-n2ccnc2C2CC(=O)c3c(C)nc(N)nc3C2)c1` (centres unmarked) [Compound 197, 2-amino-7-[1-(3-ethynyl-phenyl)-1H-imidazol-2-yl]-4-methyl-7,8-dihydro-6H-quinazolin-5-one] and `COc1cccc(-n2ccnc2[C@@H]2CC(=O)c3c(C)nc(N)nc3C2)n1` [Compound 204, (S)-2-amino-7-[1-(6-methoxy-pyridin-2-yl)-1H-imidazol-2-yl]-4-methyl-7,8-dihydro-6H-quinazolin-5-one] cannot be ordered by IC50: < 1000 nM for the first, < 1000 nM for the second.

`COc1ncccc1-n1ccnc1C1CC(=O)c2c(C)nc(N)nc2C1` (centres unmarked) [Compound 202, 2-amino-7-[1-(2-methoxy-pyridin-3-yl)-1H-imidazol-2-yl]-4-methyl-7,8-dihydro-6H-quinazolin-5-one] and `COc1nc(-n2ccnc2C2CC(=O)c3c(C)nc(N)nc3C2)ncc1C` (centres unmarked) [Compound 206, 2-amino-7-[1-(4-methoxy-5-methyl-pyrimidin-2-yl)-1H-imidazol-2-yl]-4-methyl-7,8-dihydro-6H-quinazolin-5-one] cannot be ordered by IC50: < 1000 nM for the first, < 1000 nM for the second.

Going from `COc1cccc(-n2cc(C(F)(F)F)nc2C2CC(=O)c3c(C)nc(N)nc3C2)n1` (centres unmarked) [Compound 205, 2-amino-7-[1-(6-methoxy-pyridin-2-yl)-4-trifluoromethyl-1H-imidazol-2-yl]-4-methyl-7,8-dihydro-6H-quinazolin-5-one] to `COc1nc(-n2ccnc2[C@H]2CC(=O)c3c(C)nc(N)nc3C2)ncc1C` [Compound 207, (R)-2-amino-7-[1-(4-methoxy-5-methyl-pyrimidin-2-yl)-1H-imidazol-2-yl]-4-methyl-7,8-dihydro-6H-quinazolin-5-one], the IC50 rises from < 1000 nM to > 10000 nM. The first is the more potent here.

Compared with `COc1nc(-n2ccnc2[C@@H]2CC(=O)c3c(C)nc(N)nc3C2)ncc1C` [Compound 208, (S)-2-amino-7-[1-(4-methoxy-5-methyl-pyrimidin-2-yl)-1H-imidazol-2-yl]-4-methyl-7,8-dihydro-6H-quinazolin-5-one], `Cc1nc(N)nc2c1C(=O)CC(c1nccn1Cc1ccccn1)C2` (centres unmarked) [Compound 209, 2-amino-4-methyl-7-(1-pyridin-2-ylmethyl-1H-imidazol-2-yl)-7,8-dihydro-6H-quinazolin-5-one] is higher in IC50: < 1000 nM for the first, > 10000 nM for the second. The first is the more potent here.

`CCc1nc(N)nc2c1C(=O)CC(c1ccccc1)C2` (centres unmarked) [Compound 210, 2-amino-4-ethyl-7-phenyl-7,8-dihydro-6H-quinazolin-5-one] and `COCc1nc(N)nc2c1C(=O)CC(c1ccccc1)C2` (centres unmarked) [Compound 211, 2-amino-4-methoxymethyl-7-phenyl-7,8-dihydro-6H-quinazolin-5-one] cannot be ordered by IC50: > 10000 nM for the first, > 10000 nM for the second.

First: Cc1nc(N)nc2c1C(=O)CC(c1ccc(F)cc1-c1cccc3ccccc13)C2 (centres unmarked) [Compound 212, 2-amino-7-(4-fluoro-2-naphthalen-1-yl-phenyl)-4-methyl-7,8-dihydro-6H-quinazolin-5-one]
Second: Cc1nc(N)nc2c1C(=O)CC(c1c(-c3cccnc3F)cnn1Cc1ccccc1)C2 (centres unmarked) [Compound 215, 2-amino-7-[2-benzyl-4-(2-fluoro-pyridin-3-yl)-2H-pyrazol-3-yl]-4-methyl-7,8-dihydro-6H-quinazolin-5-one]
The IC50 of the first is lower: < 1000 nM for the first, 1000 to 10000 nM for the second.
